Reference: patent US20050215646A1, “Methods for treating multiple sclerosis and pharmaceutical compositions therefor” (Renovis, Inc., priority 2004, published 2005)

What was measured:
[1] = tested on: C57BL/6J mice model of EAE; test: C57BL/6J mice model of experimental autoimmune encephalomyelitis (EAE), prevention paradigm; type: in vivo, mouse
[2] = molecular target: CXCR4 (Homo sapiens, UniProt P61073); test: Migration of CHO-K1 cells expressing CXCR4; type: cell-based; parameters: cDNA fragments encompassing chemokine receptor coding regions; expressed in transfected cells; host or cells: CHO-K1 (ATCC CCL-61), transient transfection; conditions: CHO-K1 cells expressing CXCR4, 2 hours; FIG. 3
Experimental: (§1) CHO-K1 cells were obtained from American Type Culture Collection (CCL-61) and cultured in Ham's F12 media supplemented with 10% heat inactivated FBS and 100 μg/ml penicillin/streptomycin. cDNA fragments encompassing chemokine receptor coding regions were obtained from cDNAs synthesized from HL-60 cells and/or human peripheral blood mononuclear cells by the polymerase chain reaction. Expression constructs of chemokine receptors were generated by cloning PCR fragments into expression vector pEF6/V5-TOPO (K9610-20, Invitrogen). Transient transfections were carried out with Fugene 6 transfection reagent (1814443, Roche Applied Science) according to the manufacturer's instructions.
(§2) The CHO-chemokine receptor cells were used in migration assays 36 hours following transfection. In vitro migration assays were performed using a Neuroprobe Blindwell migration apparatus (AA12, Neuro Probe, Inc./16008 Industrial Drive, Gaithersburg, Md. 20877) according to the manufacturer's instructions with slight modifications. […]
(§3) Following the migration assays, migrated cells that had adhered to the underside of the filter were quantitated according to the manufacturer's instructions. […] Stained filtered were mounted onto microscope slides and migrated cells in each well were manually counted under 40× magnification.

[3] = tested on: differentiated HL-60 cells; test: Inhibition of chemoattractant-mediated chemotaxis of differentiated HL-60 cells after pretreatment; type: cell-based; conditions: cells pre-incubated with compound 30 minutes at 37° C, migration 2 hours
Experimental: Compound 1 was prepared according to the methods of the invention and tested as described below. Briefly, cells were pre-incubated with Compound 1, and then assayed for chemokine-mediated cell migration.
In vitro cell migration assays were performed using differentiated HL-60 cells. HL-60 cells were differentiated by adding 1.4% DMSO to RPMI-1640 media supplemented with 10% FBS and 100 μg/ml penicillin/streptomycin. Cells on the sixth day following differentiation were used for in vitro migration assays.
In vitro migration assays were performed using a Neuroprobe migration apparatus (MBB96, Neuro Probe, Inc., Gaithersburg, Md. 20877) according to the manufacturer's protocol with slight modifications. Briefly, about 370 μl of diluted chemokine or control was added to a 96-well fibronectin-coated, black-walled Packard plate. Chemoattractants included 100 nM formyl-methionyl-leucyl-phenylalanine (fMLP), 30 ng/ml chemokine Stromal Cell-Derived Factor-1 (SDF-1), 300 ng/ml chemokine IL-8. Negative control included migration media alone. The plate was placed into the migration apparatus, an 8 μm framed filter was carefully placed on top of the plate, and the apparatus was screwed down. […]
After staining, the cells were washed with 200 μl phosphate-buffered saline. Cell number in each well was quantitated using ImageXpress (Axon Instruments) or a fluorescent plate reader.

[4] = tested on: CCR receptors; test: Migration of CHO-K1 cells expressing CCR receptors; type: cell-based, human; conditions: 2 hours, FIG. 4
Experimental: as §1, §2, §3

[5] = molecular target: T1, CX3CR1 (Homo sapiens, UniProt P49238); test: Migration of CHO-K1 cells expressing CX3CR1; type: cell-based; conditions: CHO-K1 cells expressing CX3CR1, 2 hours; FIG. 3
T1 construct: cDNA fragments encompassing chemokine receptor coding regions; expressed in transfected cells; host or cells: CHO-K1 (ATCC CCL-61), transient transfection
T1 sequence (P49238 1-355): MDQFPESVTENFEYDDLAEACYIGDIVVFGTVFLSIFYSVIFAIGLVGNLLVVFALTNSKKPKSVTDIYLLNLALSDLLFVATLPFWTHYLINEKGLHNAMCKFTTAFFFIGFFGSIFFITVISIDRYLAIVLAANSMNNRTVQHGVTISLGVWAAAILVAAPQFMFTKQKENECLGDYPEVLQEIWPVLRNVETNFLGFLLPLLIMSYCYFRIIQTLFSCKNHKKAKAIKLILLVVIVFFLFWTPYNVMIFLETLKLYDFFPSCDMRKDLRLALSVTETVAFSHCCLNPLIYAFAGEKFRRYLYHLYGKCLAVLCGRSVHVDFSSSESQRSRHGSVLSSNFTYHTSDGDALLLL
Experimental: as §1, §2, §3

Sequence of CXCR4 (P61073 whole entry, the tested form may be a part): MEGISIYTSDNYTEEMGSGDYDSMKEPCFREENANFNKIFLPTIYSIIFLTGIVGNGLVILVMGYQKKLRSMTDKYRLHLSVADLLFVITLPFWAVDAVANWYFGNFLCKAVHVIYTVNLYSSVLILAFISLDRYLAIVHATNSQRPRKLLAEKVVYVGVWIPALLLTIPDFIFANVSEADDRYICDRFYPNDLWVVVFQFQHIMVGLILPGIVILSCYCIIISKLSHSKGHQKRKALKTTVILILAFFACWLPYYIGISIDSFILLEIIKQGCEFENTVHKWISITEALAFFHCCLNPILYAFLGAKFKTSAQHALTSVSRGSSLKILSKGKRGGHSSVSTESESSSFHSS

`CC(C)(C)c1cc(/C=[N+](\[O-])C(C)(C)C)cc(C(C)(C)C)c1O` [Compound 1, α-(4-hydroxy-3,5-di-tert-butylphenyl)-N-tert-butylnitrone] was tested, and the “reversal of EAE-associated weight loss” value ([1]; 10 mg/kg oral once a day, FIG. 10) was “significant effect on reversal”, the “tissue infiltration score (spinal cord, H&E)” value ([1]; 10 mg/kg vs Vehicle, Day 26, failing to reach statistical significance (p=0.0513), FIG. 11) was “lower infiltration score than control mice” and the maximum disease score ([1]; oral gavage once a day from 7 days before induction, Days 9-26, FIG. 8) was “significant effect”. The cumulative disease score ([1]; oral gavage once a day from 7 days before induction, Days 9-26, FIG. 9) was “significant effect”, the “disease severity (average clinical scores)” value ([1]; oral gavage once a day, 0.3, 1, 3, 10 mg/kg from 7 days before induction, vs Vehicle, FIG. 7) was “significant reduction” and the “induction of cell migration” value [2] was “induced migration”. The “chemotaxis of the cells toward CXC chemokines such as IL-8 and SDF-1” value ([3]; FIG. 1) was “inhibits”, the “chemotaxis of the cells toward fMLP and CCR chemokines such as Rantes and MIP-1” value ([3]; FIG. 2) was “inhibits” and the “induction of cell migration” value [4] was “did not induce migration”. The “induction of cell migration” value [5] was “induced migration”.
